Test results from US9238015B2 (NESTEC S.A., priority 2012, dated 2016).

What was measured:
[1] = system: Nrf2; assay: Nrf2 reporter assay (AREc32 cells, ARE-luciferase); type: cell-based; details: 24 h, dose range 0 to 200 μM (FIG. 3)
Description: Activation of Nrf2 was measured using an Nrf2 reporter assay. This assay is based on the AREc32 cell line, from CRX biosciences (Dundee, Scotland), a stably transfected MCF7 (breast adenocarcinoma) cell line that contains a luciferase gene construct under the control of the ARE. Luciferase is an enzyme which digests luciferin and produces […]. Anti-oxidative molecules such as Tert-butylhydroquinone (TBHQ) induce luciferase transcription via the activation of Nrf2 that binds to ARE. Luciferase activity is determined using a luciferase kit form Promega (Madison, Wis.). The luciferase activity is proportional to the activation of Nrf2. […] The luciferase activity and the cell viability (ATP measurements) were determined using the Luciferase and Cell Titer-Glo kits from Promega. For each run the luciferase activities, measured in Relative Light Units (RLU), of all the wells were normalized with the mean of the luciferase activity of the cells only of all the plates. Among all the samples tested the normalization procedure was found not to affect the data and this observation permits the comparison of samples measured in different runs. For each sample the Nrf2 activation was calculated as follows: […] […] The luciferase content per sample allows a semi quantification of the Nrf2 activation by reflecting the amount of the Nrf2 activating molecule. […]

[2] = system: AREc32 cells; assay: AREc32 cell viability (ATP quantification, Cell Titer-Glo); type: cell-based; details: 24 h
Description: To determine the Nrf2 activation the samples were tested on AREc32 cells (seeded in 96 well plates) using 10 independent dilutions (1/2, 1/4, 1/6, 1/10, 1/15, 1/20, 1/25, 1/30, 1/40 and 1/50) and incubated for 24 hours at 37° C. in a 5% CO2/air incubator. The luciferase activity and the cell viability (ATP measurements) were determined using the Luciferase and Cell Titer-Glo kits from Promega.
The cell viability was also measured using a cell Titer-Glo kit (ATP quantification).

[3] = system: NF-κB; assay: NF-κB activity (SEAP and IL-8 production) in HT-29 clone 34 cells; type: cell-based, human
Description: Two in-vitro systems were used: human colonic cells (HT-29 clone 34) and human monocytes/macrophages (THP-1 blue cells). The human colonic adenocarcinoma HT-29 clone 34 cell line (passage 42-50) are adherent cells stably transfected with a NF-κB/SEAP reporter plasmid. They were cultured in DMEM high glucose (4.5 g/L) (Invitrogen) containing 1% of stable L-glutamine and supplemented with 10% of heat inactivated (one hour at 56° C.) Foetal Calf Serum (FCS) (Bioconcept, Allschwil, Switzerland), 1% of Penicillin/Streptomycin (Sigma) and 500 μg/ml of Geneticin (PAA, Pasching, Austria) at 37° C. in a 5% CO2/air incubator. Culture medium was renewed every two days until the cell monolayer reached ˜90% confluence. Cells were sub-cultured using 1× Trypsin/EDTA (Sigma). 10000 cells/well were seeded in 200 μl of culture medium in flat bottom white border 96 well plates (Greiner Bio One, Kremsmuenster, Austria). […] Cell culture supernatants were then collected for measurement of NF-κB activity (determination of secreted alkaline phosphatase and IL-8 production) using Phosphalight (Applied Biosystems) and IL-8 singleplex (Meso Scale, Gaithersburg, Md.) kits, respectively.

[4] = system: HT-29 clone 34 cells; assay: HT-29 clone 34 cell viability (ATP, Cell Titer-Glo); type: cell-based, human; details: HT-29 clone 34 cells (FIG. 5)
Description: 10000 cells/well were seeded in 200 μl of culture medium in flat bottom white border 96 well plates (Greiner Bio One, Kremsmuenster, Austria). […] 20 μl of experimental medium containing (or not) LPS 055:B5 or rhTNF-α (100 and 10 ng/ml final, respectively) was added and the plates were incubated for 24 hours at 37° C. in a 5% CO2/air incubator.
Cell viability was determined by measuring ATP using Cell Titer-Glo kit (Promega). Briefly, remaining adherent HT-29 clone 34 cells were incubated for 10 min at room temperature under horizontal shaking (250 rpm) with 120 μl of Cell Titer-Glo reagent (pre-diluted twice in 1×PBS) and the luminescence was measured using Polarstar microplate reader (BMG, Offenburg, Germany) for 1000 ms with a gain value set to 3500.

[5] = system: THP-1 blue cells; assay: THP-1 blue cell viability (Cell Titer-Glo); type: cell-based, human; details: THP-1 blue cells (FIG. 6)
Description: 200000 cells/well were seeded in 100 μl of culture medium in 96 well flat bottom transparent plates. […] 20 μl of culture media containing (or not) LPS 055:B5 (Sigma) (100 ng/ml final) was added and the plates were incubated for 16 hours at 37° C. in a 5% CO2/air incubator.
Cell culture supernatants were carefully transferred to 96 well-plates for NF-κB activity measurement which is proportional to the level of secreted alkaline phosphatase. Briefly, 100 μl of supernatants were mixed with 150 μl of QuantiBlue (Invivogen) in a 96 well-plates incubated for 3 h at 37° C. before OD measurements at 620 nm with Sunrise microplate reader (Tecan, Mannedorf, Switzerland). Cell viability was determined using Cell Titer-Glo kit as described above.

CC(=O)/C=C/C(=O)O [4-oxo-2-pentenoic acid]
Nrf2 activation [1]: strongly activate Nrf2 in a dose dependent manner | doses at which viability of AREc32 cells was not affected [2]: lower than 70 μM | inhibition of NF-κB activity ([3]; HT-29 clone 34 cells stimulated with LPS (FIG. 5)): inhibits NF-κB activity in a dose dependent manner | NF-κB activity (SEAP or IL-8 detection) in the absence of LPS ([3]; HT-29 clone 34 cells, no LPS, doses tested 3 to 400 μM): no NF-κB activity was observed | doses showing a decrease in cell viability [4]: > 50 µM | doses toxic to cells [5]: higher than 75 μM
